Read-outs that look alike come from different tables or passages of the source.
What was measured:
[1] = target: T1, PrbP/RpoB (two-hybrid, PrbP with RpoB 21-150) (Candidatus Liberibacter asiaticus, UniProt A0ABM5NE52); conditions: E. coli TOP10, 240 min, 37 °C, inhibition of PrbP/RpoB interaction, indirect reporter
T1 construct: gene WSI_01420

PrbP (CLIBASIA_01510) = target: T2, PrbP (CLIBASIA_01510) (Candidatus Liberibacter asiaticus, UniProt A0ABM5NE52); conditions: 2.5 µM PrbP, 1 ng biotin-labelled rplK promoter probe, 10 mM HEPES pH 7.5, 150 mM NaCl, 37 °C
T2 construct: gene WSI_01420

CN(C)Cc1c[nH]c2ccccc12 [Gramine]
β-galactosidase activity^d (% decrease) ([1]; 40 µM compound): 15.3 ± 0.3%

Cc1ncc([N+](=O)[O-])n1CCO [Metronidazole]
β-galactosidase activity^d (% decrease) ([1]; 50 µM compound): 53.7 ± 10%

Cc1c(Cl)cccc1Nc1ccccc1C(=O)O [Tolfenamic acid]
β-galactosidase activity^d (% decrease) ([1]; 25 µM compound): 17.5 ± 5.3% | complete disruption (PrbP (CLIBASIA_01510)): 350 µM

From paper PMC5067538 (Frontiers in Microbiology, 2016)
